Columns and labels:
Assay in all cases: IC50 for competition of protein binding to Kinobeads
Details in all cases: assay detail: Kinobeads competition in P. falciparum blood-stage lysate
UniProt Q8ILS7 = biological target: UniProt Q8ILS7
UniProt Q8ILL5 = biological target: UniProt Q8ILL5
UniProt Q8I608 = biological target: UniProt Q8I608
UniProt Q8IIK4 = biological target: UniProt Q8IIK4
UniProt O77312 = biological target: UniProt O77312
UniProt Q8I467 = biological target: UniProt Q8I467
UniProt Q8IL08 = biological target: UniProt Q8IL08
UniProt Q8IAR7 = biological target: UniProt Q8IAR7
UniProt Q8IIQ6 = biological target: UniProt Q8IIQ6
UniProt Q8I3T4 = biological target: UniProt Q8I3T4
UniProt Q8IM55 = biological target: UniProt Q8IM55
UniProt Q8I4W4 = biological target: UniProt Q8I4W4
UniProt C0H564 = biological target: UniProt C0H564
UniProt O97248 = biological target: UniProt O97248
UniProt Q8I206 = biological target: UniProt Q8I206
UniProt Q8ILI9 = biological target: UniProt Q8ILI9
UniProt Q8IBC3 = biological target: UniProt Q8IBC3
UniProt C6KTC6 = biological target: UniProt C6KTC6
UniProt Q8IJJ0 = biological target: UniProt Q8IJJ0
UniProt Q8I2X0 = biological target: UniProt Q8I2X0
UniProt C6KSP9 = biological target: UniProt C6KSP9
UniProt Q8I1T4 = biological target: UniProt Q8I1T4
UniProt Q8I5D2 = biological target: UniProt Q8I5D2
UniProt Q8I3K7 = biological target: UniProt Q8I3K7
UniProt Q8ILY9 = biological target: UniProt Q8ILY9
UniProt Q8IJI7 = biological target: UniProt Q8IJI7
UniProt Q8IAX8 = biological target: UniProt Q8IAX8
UniProt Q8I1Q9 = biological target: UniProt Q8I1Q9
UniProt Q8I0W9 = biological target: UniProt Q8I0W9
UniProt Q8IEN3 = biological target: UniProt Q8IEN3
UniProt C6KT56 = biological target: UniProt C6KT56
UniProt Q8IAU3 = biological target: UniProt Q8IAU3
UniProt C6KSV3 = biological target: UniProt C6KSV3
UniProt Q8IIH7 = biological target: UniProt Q8IIH7
UniProt Q8IDV2 = biological target: UniProt Q8IDV2
UniProt Q8I447 = biological target: UniProt Q8I447
UniProt Q8I1R5 = biological target: UniProt Q8I1R5
UniProt Q8IEQ1 = biological target: UniProt Q8IEQ1
UniProt Q8I562 = biological target: UniProt Q8I562
UniProt Q8IC16 = biological target: UniProt Q8IC16
UniProt Q8IJT8 = biological target: UniProt Q8IJT8
UniProt Q7K6A9 = biological target: UniProt Q7K6A9
UniProt Q8I5H7 = biological target: UniProt Q8I5H7
UniProt Q8IBH7 = biological target: UniProt Q8IBH7
UniProt C0H586 = biological target: UniProt C0H586
UniProt Q8I6U4 = biological target: UniProt Q8I6U4
UniProt Q8IAX6 = biological target: UniProt Q8IAX6
UniProt Q8ILV2 = biological target: UniProt Q8ILV2
UniProt Q8IHR4 = biological target: UniProt Q8IHR4
UniProt Q8II24 = biological target: UniProt Q8II24
UniProt Q8ILQ3 = biological target: UniProt Q8ILQ3

Measured: IC50
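Also: native unpurified kinases from lysate captured on beads bearing immobilized kinase inhibitors, with bead-bound kinases quantified by mass spectrometry across compound doses.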

UniProt Q8I467, sequence (Q8I467 whole entry): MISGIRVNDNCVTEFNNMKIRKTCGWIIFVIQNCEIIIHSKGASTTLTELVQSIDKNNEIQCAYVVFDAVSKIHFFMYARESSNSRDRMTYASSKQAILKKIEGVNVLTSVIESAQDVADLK
UniProt Q8I5D2, sequence (Q8I5D2 whole entry): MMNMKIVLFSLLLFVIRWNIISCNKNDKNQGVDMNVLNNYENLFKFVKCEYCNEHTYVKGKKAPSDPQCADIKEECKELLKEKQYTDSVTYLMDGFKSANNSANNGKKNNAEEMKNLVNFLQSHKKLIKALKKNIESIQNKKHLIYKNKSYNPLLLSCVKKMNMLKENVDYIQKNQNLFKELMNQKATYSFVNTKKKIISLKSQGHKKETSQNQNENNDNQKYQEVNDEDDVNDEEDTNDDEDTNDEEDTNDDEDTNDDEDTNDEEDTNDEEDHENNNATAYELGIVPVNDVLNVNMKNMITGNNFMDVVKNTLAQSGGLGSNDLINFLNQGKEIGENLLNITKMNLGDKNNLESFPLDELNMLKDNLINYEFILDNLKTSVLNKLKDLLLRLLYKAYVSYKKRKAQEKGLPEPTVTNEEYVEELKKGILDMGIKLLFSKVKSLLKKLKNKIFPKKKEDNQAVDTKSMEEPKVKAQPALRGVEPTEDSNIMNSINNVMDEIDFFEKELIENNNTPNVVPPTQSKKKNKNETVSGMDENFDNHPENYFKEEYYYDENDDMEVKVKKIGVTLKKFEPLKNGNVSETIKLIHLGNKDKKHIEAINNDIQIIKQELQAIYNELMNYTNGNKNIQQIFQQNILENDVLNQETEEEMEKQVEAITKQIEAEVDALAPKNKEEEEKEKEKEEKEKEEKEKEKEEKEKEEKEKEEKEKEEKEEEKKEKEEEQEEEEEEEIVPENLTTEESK
UniProt Q8IIK4, sequence (Q8IIK4 whole entry): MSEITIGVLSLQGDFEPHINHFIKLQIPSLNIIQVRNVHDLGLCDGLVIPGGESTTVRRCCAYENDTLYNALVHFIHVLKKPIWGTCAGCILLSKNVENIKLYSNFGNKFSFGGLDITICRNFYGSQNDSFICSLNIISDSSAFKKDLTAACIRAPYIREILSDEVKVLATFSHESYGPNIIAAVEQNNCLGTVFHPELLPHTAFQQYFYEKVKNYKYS
UniProt Q8I6U4, sequence (Q8I6U4 whole entry): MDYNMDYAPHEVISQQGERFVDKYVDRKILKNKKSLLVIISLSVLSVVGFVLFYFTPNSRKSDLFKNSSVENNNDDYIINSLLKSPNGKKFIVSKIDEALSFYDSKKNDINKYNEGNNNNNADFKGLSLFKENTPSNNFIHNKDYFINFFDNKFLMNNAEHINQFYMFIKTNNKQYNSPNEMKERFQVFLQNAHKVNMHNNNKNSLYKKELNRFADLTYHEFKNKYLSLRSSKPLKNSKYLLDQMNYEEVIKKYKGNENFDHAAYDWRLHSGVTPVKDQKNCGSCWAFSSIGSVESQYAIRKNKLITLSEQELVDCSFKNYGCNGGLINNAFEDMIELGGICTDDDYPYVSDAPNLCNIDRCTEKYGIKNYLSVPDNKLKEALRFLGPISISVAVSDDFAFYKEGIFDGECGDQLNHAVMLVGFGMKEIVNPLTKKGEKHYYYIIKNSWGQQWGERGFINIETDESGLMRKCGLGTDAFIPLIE
UniProt Q8IBH7, sequence (Q8IBH7 whole entry): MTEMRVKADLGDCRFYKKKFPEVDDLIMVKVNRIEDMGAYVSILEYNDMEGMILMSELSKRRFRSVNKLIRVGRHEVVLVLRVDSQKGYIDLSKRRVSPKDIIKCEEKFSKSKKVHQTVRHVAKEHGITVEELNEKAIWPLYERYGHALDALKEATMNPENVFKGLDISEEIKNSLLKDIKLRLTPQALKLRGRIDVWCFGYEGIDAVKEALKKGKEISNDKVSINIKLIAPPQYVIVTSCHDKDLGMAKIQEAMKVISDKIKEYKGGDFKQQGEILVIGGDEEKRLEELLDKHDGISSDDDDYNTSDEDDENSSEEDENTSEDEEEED
UniProt Q8IAX8, sequence (Q8IAX8 whole entry): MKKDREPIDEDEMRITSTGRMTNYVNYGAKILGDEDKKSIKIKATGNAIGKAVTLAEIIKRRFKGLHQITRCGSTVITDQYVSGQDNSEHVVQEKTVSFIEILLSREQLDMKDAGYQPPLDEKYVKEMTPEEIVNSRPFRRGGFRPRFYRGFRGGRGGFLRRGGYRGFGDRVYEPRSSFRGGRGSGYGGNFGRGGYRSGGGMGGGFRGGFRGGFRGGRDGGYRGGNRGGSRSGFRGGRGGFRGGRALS

O=c1[nH]c2ccc(Cl)cc2c(NC2CN3CCC2CC3)c1-c1nc2ccccc2[nH]1 (stereo unspecified) [CHIR-124]
> 20 µM: UniProt Q8ILS7 | UniProt Q8ILL5 | UniProt Q8I608 | UniProt Q8IIK4 | UniProt O77312 | UniProt Q8I467 | UniProt Q8IL08 | UniProt Q8IAR7 | UniProt Q8IIQ6 | UniProt Q8I3T4 | UniProt Q8IM55 | UniProt Q8I4W4 | UniProt C0H564 | UniProt O97248 | UniProt Q8I206 | UniProt Q8ILI9 | UniProt Q8IBC3 | UniProt C6KTC6 | UniProt Q8IJJ0 | UniProt Q8I2X0 | UniProt C6KSP9 | UniProt Q8I1T4 | UniProt Q8I5D2 | UniProt Q8I3K7 | UniProt Q8ILY9 | UniProt Q8IJI7 | UniProt Q8IAX8 | UniProt Q8I1Q9 | UniProt Q8I0W9 | UniProt Q8IEN3 | UniProt C6KT56 | UniProt Q8IAU3 | UniProt C6KSV3 | UniProt Q8IIH7 | UniProt Q8IDV2 | UniProt Q8I447 | UniProt Q8I1R5 | UniProt Q8IEQ1 | UniProt Q8I562 | UniProt Q8IC16 | UniProt Q8IJT8 | UniProt Q7K6A9 | UniProt Q8I5H7 | UniProt Q8IBH7 | UniProt C0H586 | UniProt Q8I6U4 | UniProt Q8IAX6 | UniProt Q8ILV2 | UniProt Q8IHR4 | UniProt Q8II24 | UniProt Q8ILQ3
